Test in all cases: relative viability (nuclei count vs DMSO), 5 days (fraction); higher = more cells survive
Compound in assay [1]: C1CC1C(=O)NC2=NNC3=C2C=CC(=C3)C4=CC(=CC=C4)C(=O)NC5CC5 [XMD13-2] + Cc1nc(NC(=O)N2CCC[C@H]2C(N)=O)sc1-c1ccnc(C(C)(C)C(F)(F)F)c1 [Alpelisib] (partner 2 µM)
The method in brief: (§1)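 Medians of duplicate plates are given as relative viability. That measure is the nuclei count in treated wells divided by the count in vehicle wells. Counts were taken on 4× images of lung cancer cell lines in 1536-well plates, 5 days after pin-tool dosing the day after seeding with one drug alone or a fixed anchor-drug dose plus five library-drug doses (not always all listed) in √10 steps.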

Compound in assay [2]: C1CC1C(=O)NC2=NNC3=C2C=CC(=C3)C4=CC(=CC=C4)C(=O)NC5CC5 [XMD13-2] + O=C(CCCCCCC(=O)Nc1ccccc1)NO [Vorinostat] (partner 1 µM)
A digest of the protocol: as §1

Compound in assay [3]: Cc1ccc(C(=O)Nc2cccc(C(F)(F)F)c2)cc1Nc1cncc(C(N)=O)c1 [ALW-II-49-7] + CS(=O)(=O)N1CCN(Cc2cc3nc(-c4cccc5[nH]ncc45)nc(N4CCOCC4)c3s2)CC1 [Pictilisib] (partner 1 µM)
A digest of the protocol: as §1

Compound in assay [4]: Cc1ccc(C(=O)Nc2cccc(C(F)(F)F)c2)cc1Nc1cncc(C(N)=O)c1 [ALW-II-49-7] + Nc1nc2[nH]cc(CCc3ccc(C(=O)N[C@@H](CCC(=O)O)C(=O)O)cc3)c2c(=O)[nH]1 [Pemetrexed] (partner 0.2 µM)
A digest of the protocol:
as §1

As for UMC-11, the relative viability in assay [1] (first compound 0.05 µM) was determined as 1.22; in assay [1] (first compound 0.1581 µM), 1.07; in assay [1] (first compound 0.5 µM), 0.944; in assay [1] (first compound 1.581 µM), 0.924; in assay [1] (first compound 5 µM) it was 1.13; in assay [2] (first compound 0.05 µM), 0.356. For the same cell line, the relative viability in assay [2] (first compound 0.1581 µM) turned out to be 0.413; in assay [2] (first compound 0.5 µM), 0.459; in assay [2] (first compound 1.581 µM), 0.396; in assay [2] (first compound 5 µM), 0.318; in assay [3] (first compound 0.08 µM) it was 0.917; in assay [3] (first compound 0.253 µM), 0.807. For the same cell line, the relative viability in assay [3] (first compound 2.53 µM) worked out at 1.06; in assay [3] (first compound 8 µM), 0.814; in assay [4] (first compound 0.08 µM), 0.856; in assay [4] (first compound 0.253 µM), 0.79; in assay [4] (first compound 0.8 µM) it was 0.76; in assay [4] (first compound 2.53 µM) it was 0.803. The relative viability in assay [4] (first compound 8 µM) was 0.705.
